Reference: the supplement of paper PMC10627819

Key:
S. pneumoniae D39V [1] = experiment: fitness (endpoint OD595 vs no drug) (fraction); higher = more growth
How it was run: (§1)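 Fitness was measured as bacterial growth in 384-well plates inoculated at OD595 0.01 (30 µl, or 55 µl for S. pneumoniae). Media were TSB, LB Lennox or CY, at 37 °C. OD595 was read every 30 min for 14 h and background-subtracted against the first reading. Fitness is OD595 at the transition into stationary phase divided by the robust mean of no-drug control wells, capped at 1.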

B. subtilis 168 [2] = experiment: as above
How it was run: as §1

S. aureus Newman [3] = experiment: as above
How it was run: as §1

S. aureus DSM 20231 = experiment: Bliss interaction score (quartile over a dose matrix) (fitness difference); higher = more antagonism (negative = synergy)
How it was run: (§2)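 Fitness was OD595 at entry into stationary phase divided by the plate's robust no-drug mean and capped at 1; single-drug fitness was inferred from combination data. The Bliss score is observed minus expected (product) fitness, summarised by quartiles over technical, biological and donor/recipient replicates.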

S. pneumoniae D39V [4] = experiment: as above
How it was run: as §2

B. subtilis 168 [5] = experiment: as above
How it was run: as §2

S. aureus Newman [6] = experiment: as above
How it was run: as §2
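Wherever Bliss interaction score (quartile over a dose matrix) is given: first quartile when negative (synergy) and third quartile when positive (antagonism).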

O=C(O)c1cn(C2CC2)c2cc(N3CCNCC3)c(F)cc2c1=O [Ciprofloxacin] + CN1C2=CC=CC=C2N=C3C1=CC=CC3=O [Pyocyanin]
Conditions | fitness
B. subtilis 168 [2], first compound 0.0098 µg/mL, partner 1.25 µg/mL | 0.911
B. subtilis 168 [2], first compound 0.0098 µg/mL, partner 2.5 µg/mL | 0.809
B. subtilis 168 [2], first compound 0.0098 µg/mL, partner 5 µg/mL | 0.814
B. subtilis 168 [2], first compound 0.0195 µg/mL, partner 2.5 µg/mL | 0.703
B. subtilis 168 [2], first compound 0.0195 µg/mL, partner 5 µg/mL | 0.649
S. aureus Newman [3], first compound 0.0375 µg/mL, partner 1.25 µg/mL | 0.601
S. aureus Newman [3], first compound 0.0375 µg/mL, partner 2.5 µg/mL | 0.574
S. aureus Newman [3], first compound 0.0375 µg/mL, partner 5 µg/mL | 0.38
S. aureus Newman [3], first compound 0.075 µg/mL, partner 1.25 µg/mL | 0.578
S. aureus Newman [3], first compound 0.075 µg/mL, partner 2.5 µg/mL | 0.533
S. aureus Newman [3], first compound 0.075 µg/mL, partner 5 µg/mL | 0.26
S. aureus Newman [3], first compound 0.15 µg/mL, partner 1.25 µg/mL | 0.0395
S. aureus Newman [3], first compound 0.15 µg/mL, partner 2.5 µg/mL | 0.0384
S. aureus Newman [3], first compound 0.15 µg/mL, partner 5 µg/mL | 0.0694
S. pneumoniae D39V [1], first compound 0.125 µg/mL, partner 0.325 µg/mL | 0.989
S. pneumoniae D39V [1], first compound 0.125 µg/mL, partner 0.65 µg/mL | 0.966
S. pneumoniae D39V [1], first compound 0.125 µg/mL, partner 1.3 µg/mL | 0.755
S. pneumoniae D39V [1], first compound 0.25 µg/mL, partner 0.325 µg/mL | 0.924
S. pneumoniae D39V [1], first compound 0.25 µg/mL, partner 0.65 µg/mL | 0.92

Conditions | fitness
S. pneumoniae D39V [1], first compound 0.25 µg/mL, partner 1.3 µg/mL, one replicate | 0.54

Conditions | Bliss interaction score
B. subtilis 168 [5] | 0.104
S. aureus DSM 20231 | 0.0671
S. aureus Newman [6] | -0.0511
S. pneumoniae D39V [4] | 0.0709

O=C(O)c1cn(C2CC2)c2cc(N3CCNCC3)c(F)cc2c1=O [Ciprofloxacin] + CN(C)c1cc(NC(=O)CNC(C)(C)C)c(O)c2c1C[C@H]1C[C@H]3[C@H](N(C)C)C(O)=C(C(N)=O)C(=O)[C@@]3(O)C(O)=C1C2=O [Tigecycline]
Conditions | fitness
B. subtilis 168 [2], first compound 0.0098 µg/mL, partner 0.039 µg/mL | 0.919
B. subtilis 168 [2], first compound 0.0098 µg/mL, partner 0.078 µg/mL | 0.889
B. subtilis 168 [2], first compound 0.0098 µg/mL, partner 0.156 µg/mL | 0.821
B. subtilis 168 [2], first compound 0.0195 µg/mL, partner 0.039 µg/mL | 0.758
B. subtilis 168 [2], first compound 0.0195 µg/mL, partner 0.078 µg/mL | 0.697
B. subtilis 168 [2], first compound 0.0195 µg/mL, partner 0.156 µg/mL | 0.713
S. aureus Newman [3], first compound 0.0375 µg/mL, partner 0.078 µg/mL | 0.735
S. aureus Newman [3], first compound 0.0375 µg/mL, partner 0.156 µg/mL | 0.735
S. aureus Newman [3], first compound 0.075 µg/mL, partner 0.039 µg/mL | 0.656
S. aureus Newman [3], first compound 0.075 µg/mL, partner 0.078 µg/mL | 0.698
S. aureus Newman [3], first compound 0.075 µg/mL, partner 0.156 µg/mL | 0.683
S. aureus Newman [3], first compound 0.15 µg/mL, partner 0.039 µg/mL | 0.0882
S. aureus Newman [3], first compound 0.15 µg/mL, partner 0.078 µg/mL | 0.045
S. aureus Newman [3], first compound 0.15 µg/mL, partner 0.156 µg/mL | 0.07
S. pneumoniae D39V [1], first compound 0.125 µg/mL, partner 0.325 µg/mL | 0.944
S. pneumoniae D39V [1], first compound 0.125 µg/mL, partner 0.65 µg/mL | 0.895
S. pneumoniae D39V [1], first compound 0.125 µg/mL, partner 1.3 µg/mL | 0.945
S. pneumoniae D39V [1], first compound 0.125 µg/mL, partner 2.6 µg/mL | 0.856
S. pneumoniae D39V [1], first compound 0.25 µg/mL, partner 0.65 µg/mL | 0.795
S. pneumoniae D39V [1], first compound 0.25 µg/mL, partner 1.3 µg/mL | 0.83
S. pneumoniae D39V [1], first compound 0.25 µg/mL, partner 2.6 µg/mL | 0.767
S. pneumoniae D39V [1], first compound 0.5 µg/mL, partner 2.6 µg/mL | 0.588

fitness, one replicate
Conditions | first compound 0.0098 µg/mL | first compound 0.0195 µg/mL | first compound 0.039 µg/mL | first compound 0.25 µg/mL
B. subtilis 168 [2], partner 0.125 µg/mL | ≥ 1 | 0.964 | 0.709 | –
B. subtilis 168 [2], partner 0.25 µg/mL | 0.868 | 0.849 | 0.335 | –
B. subtilis 168 [2], partner 0.5 µg/mL | 0.901 | 0.828 | 0.313 | –
S. pneumoniae D39V [1], partner 0.325 µg/mL | – | – | – | 0.834

Conditions | Bliss interaction score
B. subtilis 168 [5] | -0.0691
S. aureus DSM 20231 | 0.0365
S. aureus Newman [6] | -0.0448
S. pneumoniae D39V [4] | -0.0751

O=C(O)c1cn(C2CC2)c2cc(N3CCNCC3)c(F)cc2c1=O [Ciprofloxacin] + CN(N=O)C(=O)N[C@@H](C=O)[C@@H](O)[C@H](O)[C@H](O)CO [Streptozotocin]
Conditions | fitness
B. subtilis 168 [2], first compound 0.0098 µg/mL, partner 0.15 µg/mL | 0.886
B. subtilis 168 [2], first compound 0.0098 µg/mL, partner 0.3 µg/mL | 0.954
B. subtilis 168 [2], first compound 0.0098 µg/mL, partner 0.6 µg/mL | 0.887
B. subtilis 168 [2], first compound 0.0195 µg/mL, partner 0.15 µg/mL | 0.674
B. subtilis 168 [2], first compound 0.0195 µg/mL, partner 0.3 µg/mL | 0.678
B. subtilis 168 [2], first compound 0.0195 µg/mL, partner 0.6 µg/mL | 0.666
B. subtilis 168 [2], first compound 0.039 µg/mL, partner 0.15 µg/mL | 0.117
B. subtilis 168 [2], first compound 0.039 µg/mL, partner 0.3 µg/mL | 0.119
B. subtilis 168 [2], first compound 0.039 µg/mL, partner 0.6 µg/mL | 0.13
S. aureus Newman [3], first compound 0.0375 µg/mL, partner 0.15 µg/mL | 0.602
S. aureus Newman [3], first compound 0.0375 µg/mL, partner 0.3 µg/mL | 0.565
S. aureus Newman [3], first compound 0.0375 µg/mL, partner 0.6 µg/mL | 0.398
S. aureus Newman [3], first compound 0.075 µg/mL, partner 0.15 µg/mL | 0.448
S. aureus Newman [3], first compound 0.075 µg/mL, partner 0.6 µg/mL | 0.194
S. aureus Newman [3], first compound 0.15 µg/mL, partner 0.15 µg/mL | 0.0223
S. aureus Newman [3], first compound 0.15 µg/mL, partner 0.3 µg/mL | 0.0444
S. aureus Newman [3], first compound 0.15 µg/mL, partner 0.6 µg/mL | 0.0059
S. pneumoniae D39V [1], first compound 0.125 µg/mL, partner 1.2 µg/mL | 0.929
S. pneumoniae D39V [1], first compound 0.125 µg/mL, partner 2.4 µg/mL | 0.926
S. pneumoniae D39V [1], first compound 0.125 µg/mL, partner 4.8 µg/mL | 0.95
S. pneumoniae D39V [1], first compound 0.25 µg/mL, partner 1.2 µg/mL | 0.839
S. pneumoniae D39V [1], first compound 0.25 µg/mL, partner 4.8 µg/mL | 0.797
S. pneumoniae D39V [1], first compound 0.5 µg/mL, partner 4.8 µg/mL | 0.567

Conditions | Bliss interaction score
B. subtilis 168 [5] | -0.082
S. aureus DSM 20231 | -0.0435
S. aureus Newman [6] | -0.112
S. pneumoniae D39V [4] | -0.0511

O=C(O)c1cn(C2CC2)c2cc(N3CCNCC3)c(F)cc2c1=O [Ciprofloxacin] + CN[C@@H]1[C@H](O)[C@H](NC)[C@H]2O[C@@]3(O)C(=O)C[C@@H](C)O[C@H]3O[C@@H]2[C@H]1O [Spectinomycin]
fitness
Conditions | partner 2 µg/mL | partner 4 µg/mL | partner 8 µg/mL | partner 16 µg/mL
B. subtilis 168 [2], first compound 0.0098 µg/mL | 0.949 | 0.897 | 0.94 | –
B. subtilis 168 [2], first compound 0.0195 µg/mL | 0.694 | 0.741 | 0.789 | –
B. subtilis 168 [2], first compound 0.039 µg/mL | – | 0.257 | – | –
S. aureus Newman [3], first compound 0.0375 µg/mL | – | 0.643 | 0.666 | 0.622
S. aureus Newman [3], first compound 0.075 µg/mL | – | 0.627 | – | 0.615
S. aureus Newman [3], first compound 0.15 µg/mL | – | – | 0.0938 | 0.0557
S. pneumoniae D39V [1], first compound 0.125 µg/mL | – | 0.919 | 0.913 | 0.706
S. pneumoniae D39V [1], first compound 0.25 µg/mL | – | 0.797 | 0.795 | –
S. pneumoniae D39V [1], first compound 0.5 µg/mL | – | – | – | 0.446

fitness, one replicate
Conditions | first compound 0.078 µg/mL | first compound 0.156 µg/mL | first compound 0.25 µg/mL | first compound 0.312 µg/mL
S. aureus Newman [3], partner 16 µg/mL | 0.203 | 0.0195 | – | 0.0278
S. aureus Newman [3], partner 32 µg/mL | 0.116 | 0.0216 | – | 0.0094
S. aureus Newman [3], partner 64 µg/mL | 0.0489 | 0.0519 | – | 0.102
S. pneumoniae D39V [1], partner 16 µg/mL | – | – | 0.48 | –

Conditions | Bliss interaction score
B. subtilis 168 [5] | 0.0965
S. aureus DSM 20231 | 0.0785
S. aureus Newman [6] | -0.0629
S. pneumoniae D39V [4] | -0.0847
